Experimental data: ChEMBL document CHEMBL1201862, “PubChem BioAssay data set” (2004)
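Dose response: 5 concentrations. Exposure: 48 h. Format: 96-well plates. Endpoint: linear interpolation; highest concentration if not reached. At the GI50, growth is halved.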 Active and inactive are the calls of the source. Cut-off read from the data, not from the text of the source: active = GI50 up to about 1.1 µM and inactive = higher.

How the values were obtained:
Test in all cases: DTP human tumour cell line panel, 48 h
OVCAR-5 = test system: OVCAR-5
HOP-62 = test system: HOP-62
MDA-MB-435 = test system: MDA-MB-435
U-251 = test system: U-251
OVCAR-3 = test system: OVCAR-3
LOX IMVI = test system: LOX IMVI
NCI-H23 = test system: NCI-H23
SK-MEL-28 = test system: SK-MEL-28
Malme-3M = test system: Malme-3M
OVCAR-8 = test system: OVCAR-8
NCI/ADR-RES = test system: NCI/ADR-RES
A549 = test system: A549
HCC 2998 = test system: HCC 2998
SF-539 = test system: SF-539
T47D = test system: T47D
HCT-116 = test system: HCT-116
MDA-MB-231 = test system: MDA-MB-231
SK-OV-3 = test system: SK-OV-3
BT-549 = test system: BT-549
CAKI-1 = test system: CAKI-1

Measured: GI50

[C-]#[N+]C1(C(=O)OCC)CC1
inactive: OVCAR-5 > 100 µM | HOP-62 > 100 µM | MDA-MB-435 > 100 µM | U-251 > 100 µM | OVCAR-3 > 100 µM | LOX IMVI > 100 µM | NCI-H23 > 100 µM | SK-MEL-28 > 100 µM | Malme-3M > 100 µM | OVCAR-8 > 100 µM | NCI/ADR-RES > 100 µM | A549 > 100 µM | HCC 2998 > 100 µM | SF-539 > 100 µM | T47D > 100 µM | HCT-116 > 100 µM

COC(=O)C1CCC(=O)N1C(c1cc(OC)c(OC)c(OC)c1)c1cccc2ccccc12 (centres undefined)
inactive: OVCAR-5 > 100 µM | HOP-62 > 100 µM | MDA-MB-231 > 100 µM | MDA-MB-435 63.2 µM | U-251 > 100 µM | OVCAR-3 > 100 µM | LOX IMVI > 100 µM | SK-MEL-28 > 100 µM | OVCAR-8 > 100 µM | NCI/ADR-RES 39 µM | SK-OV-3 25.4 µM | A549 > 100 µM | SF-539 > 100 µM | T47D > 100 µM | HCT-116 > 100 µM

CSc1[nH]nc(N)c1C(=O)Nc1ccc(C)cc1
inactive: OVCAR-5 54.7 µM | HOP-62 > 100 µM | MDA-MB-231 63.2 µM | MDA-MB-435 30.9 µM | U-251 50.2 µM | OVCAR-3 77.3 µM | LOX IMVI 38.6 µM | BT-549 90.6 µM | NCI-H23 61.1 µM | SK-MEL-28 48.8 µM | Malme-3M 89.1 µM | CAKI-1 40.1 µM | SK-OV-3 > 100 µM | A549 51.6 µM | HCC 2998 76.9 µM | SF-539 > 100 µM | T47D 18.4 µM | HCT-116 75.2 µM

Cc1cc(C)c2c(c1)C/C(=C\c1cccc(C)c1C(=O)O)C2=O
inactive: OVCAR-5 99.5 µM | HOP-62 55 µM | MDA-MB-231 36.1 µM | OVCAR-3 54.5 µM | LOX IMVI 69.5 µM | BT-549 42.9 µM | NCI-H23 63.2 µM | SK-MEL-28 87.9 µM | Malme-3M 58.1 µM | OVCAR-8 52.7 µM | CAKI-1 > 100 µM | A549 43.3 µM | HCC 2998 66.5 µM | SF-539 37.2 µM | T47D > 100 µM | HCT-116 45.9 µM

Cc1ccc(-c2c(C#N)c(-c3ccccc3)n(NS(=O)(=O)c3ccccc3)c(=O)c2C#N)cc1
inactive: OVCAR-5 > 100 µM | HOP-62 64.7 µM | MDA-MB-231 > 100 µM | MDA-MB-435 99.8 µM | U-251 81.7 µM | LOX IMVI 51.1 µM | BT-549 64 µM | SK-MEL-28 > 100 µM | Malme-3M 61.5 µM | OVCAR-8 > 100 µM | CAKI-1 > 100 µM | NCI/ADR-RES 63.5 µM | SK-OV-3 > 100 µM | A549 > 100 µM | HCC 2998 47.3 µM | SF-539 87.1 µM | HCT-116 74.5 µM

O=[N+]([O-])/C(C(Cl)=C(Cl)Cl)=C1\NCCO1
inactive: OVCAR-5 > 100 µM | HOP-62 > 100 µM | MDA-MB-231 > 100 µM | MDA-MB-435 > 100 µM | U-251 > 100 µM | OVCAR-3 52.5 µM | LOX IMVI > 100 µM | NCI-H23 > 100 µM | SK-MEL-28 > 100 µM | Malme-3M 45.8 µM | OVCAR-8 > 100 µM | CAKI-1 > 100 µM | NCI/ADR-RES > 100 µM | SK-OV-3 > 100 µM | A549 > 100 µM | HCC 2998 > 100 µM | SF-539 > 100 µM | T47D 59.4 µM | HCT-116 87.5 µM

CS/C(=N/S(=O)(=O)c1ccc(Cl)cc1)NCCCN/C(=N\S(=O)(=O)c1ccc(Cl)cc1)SC
inactive: OVCAR-5 25.2 µM | HOP-62 24.8 µM | MDA-MB-231 6.21 µM | MDA-MB-435 9.42 µM | U-251 29.4 µM | OVCAR-3 6.93 µM | LOX IMVI 14 µM | SK-MEL-28 25.8 µM | Malme-3M 15.7 µM | OVCAR-8 19.8 µM | CAKI-1 23.3 µM | NCI/ADR-RES 12.9 µM | SK-OV-3 31.1 µM | HCC 2998 22.5 µM | SF-539 64 µM | T47D 7.35 µM | HCT-116 21.6 µM

O=C1C(O)=C(C(C2=C(O)C(=O)c3ccccc3C2=O)c2ccc(Cl)cc2)C(=O)c2ccccc21
inactive: OVCAR-5 7.93 µM | HOP-62 6.47 µM | MDA-MB-231 3.15 µM | MDA-MB-435 1.83 µM | U-251 6.24 µM | OVCAR-3 4.93 µM | LOX IMVI 2.64 µM | BT-549 15.6 µM | NCI-H23 4.85 µM | SK-MEL-28 28.1 µM | Malme-3M 5.25 µM | OVCAR-8 8.75 µM | CAKI-1 9.4 µM | NCI/ADR-RES 11.6 µM | SK-OV-3 17.7 µM | A549 19.3 µM | SF-539 18 µM | T47D 21 µM | HCT-116 6.34 µM

NC(=S)N1N=C(c2ccccc2O)CC1c1ccccc1 (centres undefined)
inactive: OVCAR-5 17.9 µM | HOP-62 4.95 µM | MDA-MB-435 3.02 µM | U-251 16.8 µM | OVCAR-3 10.5 µM | LOX IMVI 16.9 µM | BT-549 20.8 µM | NCI-H23 18.5 µM | SK-MEL-28 18.5 µM | Malme-3M 16.1 µM | OVCAR-8 25.5 µM | CAKI-1 27.9 µM | NCI/ADR-RES 6.35 µM | SK-OV-3 13.9 µM | A549 16 µM | HCC 2998 11.6 µM | SF-539 11.8 µM | T47D 17.6 µM | HCT-116 12.8 µM

Nc1nc(-c2ccccc2)cc(-c2ccc(OCc3ccccc3)cc2O)n1
inactive: OVCAR-5 > 100 µM | HOP-62 83.9 µM | MDA-MB-231 70.3 µM | MDA-MB-435 34 µM | U-251 31.8 µM | OVCAR-3 26.7 µM | LOX IMVI 33.9 µM | BT-549 28.8 µM | NCI-H23 38.3 µM | SK-MEL-28 89.9 µM | Malme-3M 24.2 µM | OVCAR-8 29.6 µM | CAKI-1 57.1 µM | NCI/ADR-RES 29.4 µM | A549 33.4 µM | HCC 2998 34.4 µM | SF-539 26 µM | HCT-116 28.8 µM

O=C1C=C/C(=N\N=C(c2ccccc2)c2ccccc2)O1
inactive: HOP-62 > 10 µM | MDA-MB-231 > 10 µM | MDA-MB-435 > 10 µM | LOX IMVI > 10 µM | NCI-H23 > 10 µM | SK-MEL-28 > 10 µM | Malme-3M > 10 µM | OVCAR-8 > 10 µM | CAKI-1 > 10 µM | SK-OV-3 > 10 µM | A549 > 10 µM | HCC 2998 > 10 µM | T47D > 10 µM

CCCCC[C@@H]1OC(=O)[C@@]2(CC3c4ccccc4C2c2ccccc23)[C@H]1C(=O)OC
inactive: OVCAR-5 > 100 µM | HOP-62 > 100 µM | MDA-MB-231 > 100 µM | MDA-MB-435 93.1 µM | U-251 45 µM | OVCAR-3 92.5 µM | LOX IMVI 71.4 µM | BT-549 > 100 µM | NCI-H23 21.9 µM | Malme-3M 53.2 µM | OVCAR-8 79.1 µM | CAKI-1 42.6 µM | NCI/ADR-RES 64.6 µM | SK-OV-3 84.7 µM | A549 24.4 µM | HCC 2998 23.6 µM | HCT-116 12.4 µM
